The nature of series [1]: Circular dichroism, secondary structure of peptide alone in solution. The series is classed as physicochemical. The settings on record: CD, TMEM97 (108-176) alone, pH 7.4, 0.05% DDM, room temperature, DichroWeb. (In general: Circular dichroism is the unequal absorption of left and right circularly polarised light.)
The subject of the next series is HSC70. The settings on record: cited from earlier work.
The next series deals with HCE cells. The experiment in a line: Hst1 localization by immunofluorescence after DTG pretreatment. It counts as cell-based, human. The settings on record: pretreatment with escalating concentrations of DTG (Fig. S4).
A further series has as its target full-length TMEM97 (Homo sapiens, UniProt Q5BJF2). Kind of series: SPR, recombinant full-length TMEM97. It counts as binding. The conditions noted are these: Biacore 8K, pH 7.4, 25 °C. A general note: SPR reads the build-up and loss of mass on a sensor chip optically.
Another series addresses GST-TMEM97 (108-176) (Homo sapiens, UniProt Q5BJF2). Kind of series: SPR, recombinant GST-TMEM97. It counts as binding. The conditions noted are these: Biacore 8K, pH 7.4, 25 °C.
The next series relates to TMEM97 (108-176). The experiment in a line: Circular dichroism, secondary structure on mixing with TMEM97. It counts as binding. The conditions noted are these: CD, pH 7.4, 0.05% DDM, room temperature.
In series [2] the target is synthetic TMEM97 (108-176) (Homo sapiens, UniProt Q5BJF2). Kind of series: SPR, synthetic TMEM97. The series is classed as binding. The conditions noted are these: Biacore 8K, pH 7.4, 25 °C.
Series [3] addresses TMEM97 (S2R) overexpressed in HEK293T cell membranes (UniProt Q5BJF2 1-176). Kind of series: radioligand binding.
Series [4] addresses T1, Synthetic TMEM97 (108-176).
T1 peptide: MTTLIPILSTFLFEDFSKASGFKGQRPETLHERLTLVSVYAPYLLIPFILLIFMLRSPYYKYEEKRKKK
Kind of series: SPR.

Series [5] addresses Recombinant full-length TMEM97 (Sigma-2 receptor) (UniProt Q5BJF2 1-176). The experiment in a line: SPR.
The target in series [6] is Recombinant GST-TMEM97 (108-176) (UniProt Q5BJF2 108-176). Kind of series: SPR.

This is an account of results in PMC8648968 (The FEBS journal, 2021).

In general, Ki refers to the equilibrium dissociation constant of an inhibitor or competing ligand from its target. As usually defined, the Kd is the free concentration of one partner at which half of the binding sites on the other are occupied at equilibrium, for simple one-to-one binding.

Entries after “also recorded” stand apart in the source; their conditions may differ. Where no end group is shown, it is not given here. [ ]: non-standard residue; d: D form. pS = N[C@@H](COP(=O)(O)O)C(=O)O

Sequence of full-length TMEM97 (Q5BJF2 whole entry): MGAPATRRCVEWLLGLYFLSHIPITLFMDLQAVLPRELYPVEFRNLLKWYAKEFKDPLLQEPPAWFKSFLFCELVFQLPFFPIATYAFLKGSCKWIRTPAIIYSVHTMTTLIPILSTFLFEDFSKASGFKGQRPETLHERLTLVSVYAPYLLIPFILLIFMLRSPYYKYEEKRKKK

“MTTLIPILSTFLFEDFSKASGFKGQRPETLHERLTLVSVYAPYLLIPFILLIFMLRSPYYKYEEKRKKK [TMEM97 (108-176)]”: in series [1], the Turns content turned out to be 14%, the Unordered content amounted to 17% and the β-strand content stood at 23%.
In the case of “Hst3: histatin-3, histatin family peptide cited from Imamura et al. (DSHAKRHHGYKRKFHEKHHSHRGYRSNYLYDN; Histatin-3; UniProt P15516 20-51, looked up)”, the “Interaction with HSC70” value with HSC70 is given as “interact with, but not clearly directly bind”.
Turning to `Cc1ccccc1NC(=N)Nc1ccccc1C` [DTG, 1,3-di-o-tolylguanidine], in the series on HCE cells, the “Effect on Hst1 localization” value is recorded as “Hst1 localization is reduced by pretreatment with DTG”.
Consider “HYHKFHRYYDPGSNLYKEHNHGFHHGYKDEFRREpSRDS [Hst1SP]”, for which the “Binding by SPR (in words)” value is given as “did not exhibit binding; also recorded: unable to bind” on full-length TMEM97, “did not exhibit binding; also recorded: unable to bind” at GST-TMEM97 (108-176) and “did not bind” in series [2]. For the same molecule, the “Change of secondary structure on mixing with TMEM97 (108-176)” value in the series on TMEM97 (108-176) is “did not induce increased secondary structural features; also recorded: did not induce increased secondary structural elements”.
The molecule D[pS]HEKRHHGYRRKFHEKHHSHREFPFYGDYGSNYLYDN [Histatin-1 (Hst1)] came in with a Ki in series [3] of 0.239 µM. The Kd in series [4] is 6.3 µM; in series [5], 5.3 µM; in series [6], 6.6 µM.
